Source: patent US10281476B2, “Methods to identify modulators of RyR calcium channels” (REGENTS OF THE UNIVERSITY OF MINNESOTA, priority 2013, dated 2019)
Where no end group is shown, it is not given here.

How the values were obtained:
[1] = tested on: rat intact cardiomyocytes; experiment: Ca2+ transients in intact cardiomyocytes; type: cell-based; conditions: H2O2 50 μmol/L, dantrolene 1 μmol/L, 1 Hz
Description: (§1) Intact cardiomyocytes were loaded with Fluo-4 AM (5 μmol/L, Molecular Probes) for 15 min in NT solution (in mM): NaCl 140, KCl 4, MgCl2 1, CaCl2 2, glucose 10, HEPES 5, pH 7.4. Fluo-4 AM was excited at 488 nm and emission was recorded using a 500-530 nm bandpass filter. Ca^2+sparks were recorded after field stimulation at 1 Hz, and caffeine (10mmol/L) was rapidly perfused for assessing the SR Ca^2+content. Both Ca^2+sparks and SR Ca^2+content were recorded by using a laser scanning confocal microscope (RADIANCE2000™ MP, Bio-Rad, UK). Data were analyzed using SparkMaster, an automated analysis program that allows rapid and reliable spark analysis (Picht et al., J. Am J Physiol Cell Physiol. 2007;293:C1073-C1081). Spontaneous Ca^2+waves were recorded using a BZ9000 fluorescence digital microscope (Keyence, Japan), after 10 sec from field electric stimulation at 1,2,3,4 and 5 Hz, as described previously (Fukuda et al., Biochem Biophys Res Commun. 2014;448:1-7).
(§2) Oxidation induced by hydrogen peroxide (H2O2) is expected to activate SR Ca^2+ leak through RyR2 at diastolic [Ca]i (Wagner et al., Circ Res. 2011; 108:555-65; Yan et al., Cardiovasc Res. 2008; 77:432-41). We used line-scan images to measure the effects of 50 μM/L H2O2 on Ca^2+ spark frequency (CaSpF) and SR Ca^2+ content (evaluated via rapid caffeine application) in intact cardiomyocytes after 1 Hz electric field stimulation (FIG. 25). […] Thus H2O2 may enhance diastolic RyR2 channel opening. […] So CaSpF normalized to SR Ca^2+ content, was significant increase by H2O2 treatment of myocytes (FIG. 25C).

[2] = tested on: rat intact cardiomyocytes; experiment: Ca2+ sparks and SR Ca2+ content in intact cardiomyocytes; type: cell-based; conditions: for Ca2+ spark Amplitude (ΔF/F0) / Ca2+ spark FDHM / Ca2+ spark FWHM: H2O2 50 μmol/L, dantrolene 1 μmol/L
Description: as §1, §2

RyR2 [3] = experiment: RyR2 free thiol content by monobromobimane (mBB) fluorescence; type: cell-based, rat; conditions: 50 μmol/L H2O2, with or without dantrolene pretreatment
Description: Intracellular reactive oxygen species (ROS) formation was measured in rat cardiac myocytes using a fluorescent probe, 5-(and -6)-chloromethyl-2′,7′-dichlorodihydrofluoroscein diacetate (H2DCFDA, 10 μmol/L) (Terentyev et al., Circ Res. 2008; 103:1466-1472). This assay is widely used as a reliable method for the measurement of intracellular ROS such as hydrogen peroxide, hydroxyl radicals, and hydroperoxide. The H2DCFDA dye was excited with the 488 nm and emission was collected at 500-530 nm. The content of free thiols in RyR2 was determined based on the monobromobimane (mBB, Calbiochem) fluorescence intensity, as previously described (Terentyev et al., Circ Res. 2008; 103:1466-1472; Ho et al., J Physiol. 2011; 19:4697-4708). In brief, myocytes were incubated with mBB for 1 hr. Myocytes were then lysed in lysis buffer and loaded on 6% SDS-PAGE gels. The fluorescence emission intensity of the RyR2-bound mBB was measured at 482 nm by exciting at 382 nm. mBB fluorescence was normalized to the RyR2 amount, which was determined using quantitative densitometry of Coomassie Blue-stained gels.
To monitor intracellular ROS level, we used H2DCFDA (10 μmol/L). […] To assess whether dantrolene can attenuate the extent of RyR2 thiol modification in H2O2-treated myocytes, we used a monobromobimane (mBB) fluorescence labeling assay.

RyR2 [4] = target: RyR2 (Rattus norvegicus, UniProt B0LPN4); experiment: Fluorescent CaM binding at the Z-line and at RyR2 (FKBP12.6-CaM FRET) in permeabilized myocytes; design: These fluorescent proteins were added to saponin-permeabilized myocytes with or without pre-equilibration with saturating DPc10 concentration; endogenous in cells; host or cells: saponin-permeabilized rat ventricular myocytes
Description: These fluorescent proteins were added to saponin-permeabilized myocytes with or without pre-equilibration with saturating DPc10 concentration. […] We also did this with high [CaM] (500 nmol/L) that saturates RyR2 with CaM under control conditions (without DPc10; FIG. 17C). […] To test whether DPc10 and CaM bind at the same or nearby RyR2 sites, we measured FRET between CaM and DPc10.
CaM also binds to RyR2 and reduces RyR2 open probability, and works as a regulatory protein for RyR2 channel gating (Yamaguchi et al., J Biol Chem. 2003; 278:23480-23486; Balshaw et al., J Biol Chem. 2001; 276:20144-20153; Yang et al., Circ Res. 2014; 114:295-306); Yamaguchi et al., J Clin Invest. 2007; 117:1344-1353). We measured the effect of H2O2 on CaM-RyR2 binding affinity using F-CaM as in our previous reports (Yang et al., Circ Res. 2014; 114:295-306; Cornea et al., Proc Natl Acad Sci USA. 2009; 106:6128-6133).
(50 μmol/L) in media containing 50 μmol/L H2O2 (the same concentration used in myocyte pre-incubation experiments). This allowed F-CaM oxidation (and call this F-CaM^Ox). This was then diluted 2500-fold to 20 nmol/L F-CaM^Ox and no H2O2 was present in the myocyte bath.
As a further test of whether RyR2 oxidation alone inhibits subsequent CaM affinity, we removed H2O2 from the myocytes by repeated washing, prior to the addition of F-CaM.

Chain of RyR2 (Rattus norvegicus, UniProt B0LPN4) (B0LPN4 whole entry): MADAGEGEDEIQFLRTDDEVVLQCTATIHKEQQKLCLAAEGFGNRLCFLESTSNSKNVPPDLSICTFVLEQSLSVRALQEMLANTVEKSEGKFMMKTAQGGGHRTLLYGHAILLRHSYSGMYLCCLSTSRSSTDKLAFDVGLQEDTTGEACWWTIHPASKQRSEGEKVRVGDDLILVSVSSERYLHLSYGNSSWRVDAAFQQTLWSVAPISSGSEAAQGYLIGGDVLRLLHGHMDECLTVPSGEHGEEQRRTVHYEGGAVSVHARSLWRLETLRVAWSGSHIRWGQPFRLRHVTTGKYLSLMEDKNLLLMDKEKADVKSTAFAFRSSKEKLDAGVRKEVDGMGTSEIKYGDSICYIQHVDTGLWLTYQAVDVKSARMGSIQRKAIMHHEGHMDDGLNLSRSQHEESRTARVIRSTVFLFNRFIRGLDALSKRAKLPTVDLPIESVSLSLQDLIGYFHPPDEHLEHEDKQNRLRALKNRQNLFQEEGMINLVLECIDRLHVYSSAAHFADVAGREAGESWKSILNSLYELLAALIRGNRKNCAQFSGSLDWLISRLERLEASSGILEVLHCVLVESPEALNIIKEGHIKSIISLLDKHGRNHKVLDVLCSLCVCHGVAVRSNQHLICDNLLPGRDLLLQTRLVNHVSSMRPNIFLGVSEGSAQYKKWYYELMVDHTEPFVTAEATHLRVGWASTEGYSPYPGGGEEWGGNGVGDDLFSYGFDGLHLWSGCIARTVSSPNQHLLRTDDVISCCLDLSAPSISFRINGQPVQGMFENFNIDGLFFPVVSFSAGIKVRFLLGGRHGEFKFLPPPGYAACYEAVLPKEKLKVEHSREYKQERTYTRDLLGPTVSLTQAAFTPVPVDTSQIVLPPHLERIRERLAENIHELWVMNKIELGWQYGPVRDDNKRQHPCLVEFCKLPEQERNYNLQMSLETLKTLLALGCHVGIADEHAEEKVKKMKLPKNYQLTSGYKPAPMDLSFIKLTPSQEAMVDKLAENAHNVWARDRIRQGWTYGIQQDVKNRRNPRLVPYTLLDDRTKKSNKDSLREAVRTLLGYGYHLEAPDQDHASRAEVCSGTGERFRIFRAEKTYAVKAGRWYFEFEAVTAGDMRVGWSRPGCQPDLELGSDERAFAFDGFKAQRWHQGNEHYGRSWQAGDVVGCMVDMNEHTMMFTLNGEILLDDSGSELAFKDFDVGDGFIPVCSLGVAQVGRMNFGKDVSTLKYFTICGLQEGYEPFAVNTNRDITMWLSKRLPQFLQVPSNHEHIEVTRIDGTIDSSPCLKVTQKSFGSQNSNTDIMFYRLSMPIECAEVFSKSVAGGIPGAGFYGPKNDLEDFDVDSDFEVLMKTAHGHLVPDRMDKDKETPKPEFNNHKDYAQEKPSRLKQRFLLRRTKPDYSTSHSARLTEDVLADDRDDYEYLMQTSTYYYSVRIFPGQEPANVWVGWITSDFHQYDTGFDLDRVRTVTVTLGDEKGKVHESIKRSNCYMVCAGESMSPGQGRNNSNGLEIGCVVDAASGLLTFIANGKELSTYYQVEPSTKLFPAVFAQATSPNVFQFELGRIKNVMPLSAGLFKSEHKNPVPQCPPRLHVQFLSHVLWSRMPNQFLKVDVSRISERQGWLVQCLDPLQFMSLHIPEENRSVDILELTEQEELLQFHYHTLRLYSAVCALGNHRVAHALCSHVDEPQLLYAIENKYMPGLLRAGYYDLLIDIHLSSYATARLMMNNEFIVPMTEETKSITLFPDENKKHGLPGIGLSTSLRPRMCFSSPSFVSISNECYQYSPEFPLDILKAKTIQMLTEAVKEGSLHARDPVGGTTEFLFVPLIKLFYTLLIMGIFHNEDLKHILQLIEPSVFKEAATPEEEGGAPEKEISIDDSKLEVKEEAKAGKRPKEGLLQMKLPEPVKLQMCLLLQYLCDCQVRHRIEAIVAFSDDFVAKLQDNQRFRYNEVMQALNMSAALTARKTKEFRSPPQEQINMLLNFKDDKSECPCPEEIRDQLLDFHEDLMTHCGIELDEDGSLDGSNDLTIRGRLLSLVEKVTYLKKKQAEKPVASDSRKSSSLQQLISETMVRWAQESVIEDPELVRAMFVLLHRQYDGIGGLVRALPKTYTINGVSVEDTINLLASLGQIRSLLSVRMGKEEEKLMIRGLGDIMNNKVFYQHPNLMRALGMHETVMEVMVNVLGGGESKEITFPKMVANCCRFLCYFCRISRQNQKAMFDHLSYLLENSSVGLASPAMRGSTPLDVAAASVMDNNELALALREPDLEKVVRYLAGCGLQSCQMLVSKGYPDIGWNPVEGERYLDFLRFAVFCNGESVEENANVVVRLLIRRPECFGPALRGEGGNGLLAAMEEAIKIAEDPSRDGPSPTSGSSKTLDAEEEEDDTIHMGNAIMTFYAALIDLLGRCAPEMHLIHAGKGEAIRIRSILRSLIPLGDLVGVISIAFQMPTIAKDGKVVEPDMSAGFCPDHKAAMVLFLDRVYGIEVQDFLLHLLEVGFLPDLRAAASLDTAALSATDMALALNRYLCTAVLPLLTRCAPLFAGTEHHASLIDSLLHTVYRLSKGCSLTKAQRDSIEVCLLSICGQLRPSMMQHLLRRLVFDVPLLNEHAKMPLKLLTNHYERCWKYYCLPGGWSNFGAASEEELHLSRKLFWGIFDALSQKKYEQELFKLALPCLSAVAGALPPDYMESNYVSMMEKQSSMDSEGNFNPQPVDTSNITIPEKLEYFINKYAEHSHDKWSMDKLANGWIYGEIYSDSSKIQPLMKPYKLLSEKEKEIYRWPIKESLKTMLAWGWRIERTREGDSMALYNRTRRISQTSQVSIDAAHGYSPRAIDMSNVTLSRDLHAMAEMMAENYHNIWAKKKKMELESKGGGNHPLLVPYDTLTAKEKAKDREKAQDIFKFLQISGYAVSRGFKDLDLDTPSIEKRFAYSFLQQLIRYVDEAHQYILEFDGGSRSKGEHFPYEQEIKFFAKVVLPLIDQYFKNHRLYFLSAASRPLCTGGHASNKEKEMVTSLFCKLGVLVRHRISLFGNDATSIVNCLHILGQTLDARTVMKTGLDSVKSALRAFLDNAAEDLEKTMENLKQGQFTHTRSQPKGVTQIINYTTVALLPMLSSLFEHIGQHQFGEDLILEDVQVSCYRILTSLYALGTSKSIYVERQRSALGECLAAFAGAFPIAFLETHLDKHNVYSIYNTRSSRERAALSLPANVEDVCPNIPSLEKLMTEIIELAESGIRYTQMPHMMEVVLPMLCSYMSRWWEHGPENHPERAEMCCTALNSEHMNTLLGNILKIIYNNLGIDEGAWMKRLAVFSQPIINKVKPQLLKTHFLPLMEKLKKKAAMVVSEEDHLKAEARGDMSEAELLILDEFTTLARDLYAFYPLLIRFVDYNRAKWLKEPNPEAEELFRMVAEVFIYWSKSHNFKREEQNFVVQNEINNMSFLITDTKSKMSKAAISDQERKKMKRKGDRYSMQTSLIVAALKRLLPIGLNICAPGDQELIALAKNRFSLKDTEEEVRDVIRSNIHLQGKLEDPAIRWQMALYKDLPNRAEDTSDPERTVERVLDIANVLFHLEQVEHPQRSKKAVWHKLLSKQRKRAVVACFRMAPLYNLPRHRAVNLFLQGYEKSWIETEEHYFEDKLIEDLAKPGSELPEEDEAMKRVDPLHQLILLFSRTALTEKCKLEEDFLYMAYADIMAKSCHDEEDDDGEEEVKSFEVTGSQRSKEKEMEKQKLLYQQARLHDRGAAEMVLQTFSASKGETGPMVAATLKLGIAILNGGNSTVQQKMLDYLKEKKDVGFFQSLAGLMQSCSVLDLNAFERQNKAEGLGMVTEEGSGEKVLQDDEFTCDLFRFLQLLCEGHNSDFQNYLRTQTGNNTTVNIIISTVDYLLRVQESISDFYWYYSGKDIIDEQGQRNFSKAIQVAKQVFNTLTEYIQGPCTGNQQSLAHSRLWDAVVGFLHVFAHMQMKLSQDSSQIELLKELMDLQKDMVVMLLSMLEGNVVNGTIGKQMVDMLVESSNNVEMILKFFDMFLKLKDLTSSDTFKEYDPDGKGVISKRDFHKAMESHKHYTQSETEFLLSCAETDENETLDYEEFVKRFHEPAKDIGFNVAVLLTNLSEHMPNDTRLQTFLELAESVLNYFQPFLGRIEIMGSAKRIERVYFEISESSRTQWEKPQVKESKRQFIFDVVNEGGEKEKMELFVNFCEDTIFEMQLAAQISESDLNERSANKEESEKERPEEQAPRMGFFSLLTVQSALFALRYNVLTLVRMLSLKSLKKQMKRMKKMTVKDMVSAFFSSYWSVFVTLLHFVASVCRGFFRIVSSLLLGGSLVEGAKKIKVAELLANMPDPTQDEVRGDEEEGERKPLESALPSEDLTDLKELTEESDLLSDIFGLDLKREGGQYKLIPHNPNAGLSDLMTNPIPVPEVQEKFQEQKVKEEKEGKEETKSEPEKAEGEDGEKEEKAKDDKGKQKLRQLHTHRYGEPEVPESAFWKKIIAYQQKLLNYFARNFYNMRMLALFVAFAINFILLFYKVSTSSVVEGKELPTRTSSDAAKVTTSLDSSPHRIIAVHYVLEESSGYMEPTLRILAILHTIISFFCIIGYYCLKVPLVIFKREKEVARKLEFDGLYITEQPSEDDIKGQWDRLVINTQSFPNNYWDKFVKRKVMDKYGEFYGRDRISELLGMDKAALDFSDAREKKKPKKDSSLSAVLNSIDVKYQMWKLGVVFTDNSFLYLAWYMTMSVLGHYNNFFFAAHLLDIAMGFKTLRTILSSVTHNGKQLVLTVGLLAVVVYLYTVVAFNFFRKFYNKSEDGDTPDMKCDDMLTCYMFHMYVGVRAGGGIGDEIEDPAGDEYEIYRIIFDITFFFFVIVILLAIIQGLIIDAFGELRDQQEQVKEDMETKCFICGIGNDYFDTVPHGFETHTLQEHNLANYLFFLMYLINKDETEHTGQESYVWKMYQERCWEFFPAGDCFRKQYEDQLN

Molecule | Tau [Ca]i decline [1] | Δ [Ca]i twitch (ΔF/F0) [1] | CaSpF compared with control ([2]; 50 μM/L H2O2, after 1 Hz stimulation) | Ca2+ spark Amplitude (ΔF/F0) [2] | Ca2+ spark FDHM [2] | Ca2+ spark FWHM [2] | SR Ca2+ content ([2]; intact myocytes) | content of free thiols on RyR2 / RyR2 oxidation level (RyR2 [3]) | reduction of F-CaM binding, myocytes pre-treated with H2O2 (RyR2 [4]; 50 μmol/L H2O2 not removed, F-CaM 20 nmol/L) | reduction of F-CaM binding at the Z-line (RyR2 [4]; 50 μmol/L H2O2 removed by washing before F-CaM) | effect on F-CaM binding at the Z-line (RyR2 [4]; 10 and 50 μmol/L H2O2 pretreatment, F-CaM 20 nmol/L) | reduction of RyR2 A-CaM binding (RyR2 [4]; subsaturating A-CaM, 50 μM H2O2) | effect on H2O2-induced increase in frequency of Ca2+ sparks ([2]; dantrolene added before H2O2) | effect on control myocytes (Ca2+ sparks and SCW) ([2]; no H2O2) | restoration of F-CaM binding in H2O2-treated myocytes (RyR2 [4]; dantrolene 1 μmol/L, AIP 1 μmol/L) | effect on CaM-RyR2 affinity under control conditions (RyR2 [4]; no H2O2) | effect on CaM binding at the RyR2 and at the Z-line (RyR2 [4]; 20 nmol/L CaM, DPc10 pretreatment) | effect on CaM binding at the RyR2 (FRET) and at the Z-lines (total) (RyR2 [4]; 500 nmol/L AF568-34-CaM, DPc10-treated myocytes)
OO [H2O2, hydrogen peroxide] | 0.32 ± 0.01 s | 2.56 ± 0.19 ΔF/F0 | significantly increased | 0.57 ± 0.01 ΔF/F0 | 67.05 ± 3.25 ms | 2.04 ± 0.07 μm | did not significantly alter | significantly decreased | 50% | 32% | reduced | ~50% | – | – | – | – | – | –
O=C1CN(/N=C/c2ccc(-c3ccc([N+](=O)[O-])cc3)o2)C(O)=N1 [dantrolene] | 0.31 ± 0.01 s | 2.35 ± 0.16 ΔF/F0 | – | 0.55 ± 0.01 ΔF/F0 | 61.98 ± 3.35 ms | 1.93 ± 0.09 μm | – | did not attenuate | – | – | – | – | suppressed | had no effect | partially restore | Neither AIP nor dantrolene alter | – | –
GFCPDHKAAMVLFLDRVYGIEVQDFLLHLLEVGFLP [DPc10] | – | – | – | – | – | – | – | – | – | – | – | – | – | – | – | – | significantly reduced | reduced
